Measurements: US11040981B2, “Pyrrolotriazine compounds and methods of inhibiting TAM kinases” (Syros Pharmaceuticals, Inc., priority 2017, dated 2021)

Columns and labels:
MERTK = biological target: T1, MERTK (Homo sapiens, UniProt Q12866); assay: TR-FRET kinase activity assay, MERTK; format: biochemical; conditions: for IC50: TR-FRET activity assay, ATP at Km, 60 minutes, read-out: Mer IC50; for FLT3/Mer ratio (FLT3 IC50/Mer IC50): ratio of Mer to FLT3: FLT3 IC50/Mer IC50
T1 sequence (Q12866 21-999): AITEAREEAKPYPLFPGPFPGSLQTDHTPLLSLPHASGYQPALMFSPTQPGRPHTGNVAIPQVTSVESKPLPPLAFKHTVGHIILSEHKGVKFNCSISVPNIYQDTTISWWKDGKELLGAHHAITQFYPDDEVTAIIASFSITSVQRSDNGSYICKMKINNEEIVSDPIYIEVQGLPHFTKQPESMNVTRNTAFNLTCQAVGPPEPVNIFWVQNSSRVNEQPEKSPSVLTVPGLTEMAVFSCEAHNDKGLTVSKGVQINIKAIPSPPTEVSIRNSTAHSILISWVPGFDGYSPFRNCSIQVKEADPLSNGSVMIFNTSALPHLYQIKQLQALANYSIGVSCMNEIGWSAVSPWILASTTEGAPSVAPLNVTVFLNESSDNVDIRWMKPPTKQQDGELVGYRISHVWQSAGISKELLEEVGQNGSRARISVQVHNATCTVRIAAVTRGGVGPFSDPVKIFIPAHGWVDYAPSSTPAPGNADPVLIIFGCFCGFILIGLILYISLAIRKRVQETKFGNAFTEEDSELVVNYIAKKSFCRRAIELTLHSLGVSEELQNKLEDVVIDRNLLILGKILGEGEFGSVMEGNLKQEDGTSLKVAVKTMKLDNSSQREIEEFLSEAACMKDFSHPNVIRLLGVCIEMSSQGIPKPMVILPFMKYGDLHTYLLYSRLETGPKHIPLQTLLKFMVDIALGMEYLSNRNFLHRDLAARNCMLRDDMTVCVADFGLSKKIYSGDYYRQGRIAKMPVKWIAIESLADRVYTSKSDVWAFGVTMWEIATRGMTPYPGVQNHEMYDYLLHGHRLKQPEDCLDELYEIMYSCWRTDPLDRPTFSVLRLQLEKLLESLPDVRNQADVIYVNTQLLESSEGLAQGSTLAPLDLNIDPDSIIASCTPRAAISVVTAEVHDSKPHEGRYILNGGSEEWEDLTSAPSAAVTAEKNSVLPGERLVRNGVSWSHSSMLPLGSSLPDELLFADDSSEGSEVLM
Summary of the method: (§1)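 Compounds were tested against each kinase with ATP set at its own Km and a labelled tyrosine peptide substrate. Following one hour at room temperature in buffer containing 10 mM MgCl2 and 1 mM DTT, phosphorylated product was detected by Europium antibody TR-FRET after EDTA quench, and IC50 values were calculated.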

TYRO3 = biological target: T2, TYRO3 (Homo sapiens, UniProt Q06418); assay: TR-FRET kinase activity assay, TYRO3; format: biochemical; conditions: ATP at Km, 60 minutes
T2 sequence (Q06418 41-890): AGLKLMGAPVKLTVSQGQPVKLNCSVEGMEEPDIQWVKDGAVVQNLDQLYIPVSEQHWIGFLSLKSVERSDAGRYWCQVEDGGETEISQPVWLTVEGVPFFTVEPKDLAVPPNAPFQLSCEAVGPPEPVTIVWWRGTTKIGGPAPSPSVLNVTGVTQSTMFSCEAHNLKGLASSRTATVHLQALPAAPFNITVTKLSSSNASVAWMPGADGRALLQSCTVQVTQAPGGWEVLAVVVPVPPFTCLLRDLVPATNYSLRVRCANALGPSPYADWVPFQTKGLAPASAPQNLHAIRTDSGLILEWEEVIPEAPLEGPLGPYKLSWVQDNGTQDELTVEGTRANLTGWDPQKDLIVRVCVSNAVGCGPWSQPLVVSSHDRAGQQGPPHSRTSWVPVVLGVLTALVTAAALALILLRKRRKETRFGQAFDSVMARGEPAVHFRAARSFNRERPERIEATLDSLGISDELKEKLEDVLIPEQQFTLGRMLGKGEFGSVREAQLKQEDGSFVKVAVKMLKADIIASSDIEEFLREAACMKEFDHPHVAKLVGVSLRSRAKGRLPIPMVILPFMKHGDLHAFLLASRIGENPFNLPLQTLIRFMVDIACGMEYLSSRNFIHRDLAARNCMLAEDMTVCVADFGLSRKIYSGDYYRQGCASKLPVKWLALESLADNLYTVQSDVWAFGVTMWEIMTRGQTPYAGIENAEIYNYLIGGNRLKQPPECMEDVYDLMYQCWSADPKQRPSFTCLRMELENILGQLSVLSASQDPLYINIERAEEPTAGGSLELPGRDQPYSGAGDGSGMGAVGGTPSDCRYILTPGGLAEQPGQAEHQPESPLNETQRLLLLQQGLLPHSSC
Summary of the method: as §1

| IC50 (MERTK) [nM] | IC50 (TYRO3) [nM] | SMILES | FLT3/Mer ratio (FLT3 IC50/Mer IC50) (MERTK) |
| --- | --- | --- | --- |
| ≤ 100 | ≤ 100 | COCC(C)Nc1ncc2c(-c3ccc(C(C)N4CCOCC4)cc3)cc(C3CCC(O)CC3)n2n1 (mixture of isomers) [Compound 180] | ++ (“++” represents a ratio of between 10 and 100) |
| ≤ 100 | ≤ 100 | CC(Nc1ncc2c(-c3ccc(CN4CCN(C)CC4)cc3)cc([C@H]3CC[C@H](O)CC3)n2n1)C(F)F (mixture of isomers) [Compound 148] | +++ (“+++” represents a ratio of >100) |
| ≤ 100 | ≤ 100 | CCCCC[C@H](C)Nc1ncc2c(-c3ccc(S(=O)(=O)N4CCOCC4)cc3)cc([C@H]3CC[C@H](O)CC3)n2n1 [Compound 102, (1S,4r)-4-(2-((S)-heptan-2-ylamino)-5-(4-(morpholinosulfonyl)phenyl)pyrrolo[2,1-f][1,2,4]triazin-7-yl)cyclohexanol] | ++ (“++” represents a ratio of between 10 and 100) |
| ≤ 100 | ≤ 100 | COC[C@H](C)Nc1ncc2c(-c3ccc(C(=O)N4CCN(C)CC4)cc3)cc([C@H]3CC[C@H](O)CC3)n2n1 [Compound 144] | +++ (“+++” represents a ratio of >100) |
| ≤ 100 | ≤ 100 | CC(CC#N)Nc1ncc2c(-c3ccc(CN4CCN(C)CC4)cc3)cc(C3CCC(O)CC3)n2n1 (stereo not drawn) [Compound 145] | ++ (“++” represents a ratio of between 10 and 100) |
| ≤ 100 | ≤ 100 | COC[C@H](C)Nc1ncc2c(-c3ccnc(C)c3)cc([C@H]3CC[C@H](O)CC3)n2n1 [Compound 146] | +++ (“+++” represents a ratio of >100) |
| ≤ 100 | ≤ 100 | CNC(=O)c1ccc(-c2cc([C@H]3CC[C@H](O)CC3)n3nc(N[C@@H](C)COC)ncc23)cn1 [Compound 147] | +++ (“+++” represents a ratio of >100) |
| ≤ 100 | ≤ 100 | COCC1(Nc2ncc3c(-c4ccc(CN5CCN(C)CC5)cc4)cc(C4CCC(O)CC4)n3n2)CC1 (stereo not drawn) [Compound 149] | ++ (“++” represents a ratio of between 10 and 100) |
| ≤ 100 | ≤ 100 | COC[C@H](C)Nc1ncc2c(-c3ccc(CN4CCN(C(C)=O)CC4)cc3)cc([C@H]3CC[C@H](O)CC3)n2n1 [Compound 150] | ++ (“++” represents a ratio of between 10 and 100) |
| ≤ 100 | ≤ 100 | COC[C@H](C)Nc1ncc2c(-c3cnn(C4CCOCC4)c3)cc([C@H]3CC[C@H](O)CC3)n2n1 [Compound 151] | +++ (“+++” represents a ratio of >100) |
| ≤ 100 | ≤ 100 | COC[C@H](C)Nc1ncc2c(-c3cnn(C)c3)cc([C@H]3CC[C@H](O)CC3)n2n1 [Compound 152] | +++ (“+++” represents a ratio of >100) |
| ≤ 100 | ≤ 100 | COC[C@H](C)Nc1ncc2c(-c3cnn(CCN4CCOCC4)c3)cc([C@H]3CC[C@H](O)CC3)n2n1 [Compound 153] | +++ (“+++” represents a ratio of >100) |
| ≤ 100 | ≤ 100 | COC[C@H](C)Nc1ncc2c(-c3ccc(CN4CCN(c5nccc(C)n5)CC4)cc3)cc([C@H]3CC[C@H](O)CC3)n2n1 [Compound 154, (trans)-4-(2-(((S)-1-methoxypropan-2-yl)amino)-5-(4-((4-(4-methylpyrimidin-2-yl)piperazin-1-yl)methyl)phenyl)pyrrolo[2,1-f][1,2,4]triazin-7-yl)cyclohexanol] | +++ (“+++” represents a ratio of >100) |
| ≤ 100 | ≤ 100 | COC[C@H](C)Nc1ncc2c(-c3ccc(CN4CCN(C)CC4)cc3)cc([C@H]3CC[C@@H](O)CC3)n2n1 [Compound 155] | ++ (“++” represents a ratio of between 10 and 100) |
| ≤ 100 | ≤ 100 | COC[C@H](C)Nc1ncc2c(-c3ccc([C@@H](C)N4CCOCC4)cc3)cc([C@H]3CC[C@H](O)CC3)n2n1 [Compound 156] | ++ (“++” represents a ratio of between 10 and 100) |
| ≤ 100 | ≤ 100 | COC[C@H](C)Nc1ncc2c(-c3ccc([C@H](C)N4CCOCC4)cc3)cc([C@H]3CC[C@H](O)CC3)n2n1 [Compound 157] | ++ (“++” represents a ratio of between 10 and 100) |
| ≤ 100 | ≤ 100 | COCC(C)Nc1ncc2c(-c3cccc(C(C)N4CCCC4)c3)cc(C3CCC(O)CC3)n2n1 (stereo not drawn) [Compound 158] | +++ (“+++” represents a ratio of >100) |
| ≤ 100 | ≤ 100 | CCOC(=O)Cn1cc(-c2cc([C@H]3CC[C@H](O)CC3)n3nc(N[C@@H](C)COC)ncc23)cn1 [Compound 159] | +++ (“+++” represents a ratio of >100) |
| ≤ 100 | ≤ 100 | COC[C@H](C)Nc1ncc2c(-c3cnn(CC(=O)O)c3)cc([C@H]3CC[C@H](O)CC3)n2n1 [Compound 160] | +++ (“+++” represents a ratio of >100) |
| ≤ 100 | ≤ 100 | COCCC(C)Nc1ncc2c(-c3ccc(CN4CCCC4)cc3)cc(C3CCC(O)CC3)n2n1 (stereo not drawn) [Compound 161] | ++ (“++” represents a ratio of between 10 and 100) |
| ≤ 100 | ≤ 100 | COC[C@H](C)Nc1ncc2c(-c3cnn(CC(=O)N4CCOCC4)c3)cc([C@H]3CC[C@H](O)CC3)n2n1 [Compound 162] | +++ (“+++” represents a ratio of >100) |
| ≤ 100 | ≤ 100 | COC[C@H](C)Nc1ncc2c(-c3ccc(CN4CCOCC4)cc3)cc([C@H]3CC[C@@H](O)CC3)n2n1 [Compound 163, (cis)-4-(2-(((S)-1-methoxypropan-2-yl)amino)-5-(4-(morpholinomethyl)phenyl)pyrrolo[2,1-f][1,2,4]triazin-7-yl)cyclohexanol] | ++ (“++” represents a ratio of between 10 and 100) |
| ≤ 100 | ≤ 100 | COCC(C)Nc1ncc2c(-c3ccc(C(C)N4CCCC4)cc3)cc(C3CCC(O)CC3)n2n1 (stereo not drawn) [Compound 164] | ++ (“++” represents a ratio of between 10 and 100) |
| ≤ 100 | ≤ 100 | COC[C@H](C)Nc1ncc2c(-c3ccc([C@H](C)N4CCCC4)cc3)cc([C@H]3CC[C@H](O)CC3)n2n1 [Compound 165] | ++ (“++” represents a ratio of between 10 and 100) |
| ≤ 100 | ≤ 100 | COCC(C)Nc1ncc2c(-c3ccc(C(C)N4CCCC4)cc3)cc(C3CCC(O)CC3)n2n1 (stereo not drawn) [Compound 166] | ++ (“++” represents a ratio of between 10 and 100) |
| ≤ 100 | ≤ 100 | COC[C@H](C)Nc1ncc2c(-c3cnn(CC(C)C)c3)cc([C@H]3CC[C@H](O)CC3)n2n1 [Compound 167] | +++ (“+++” represents a ratio of >100) |
